Like-named read-outs stand apart in the source and are kept apart here. Starred links: 1 amine or outer side, 2 acyl side, 3 side chain; linkers in the order of their positions; H or OH if unused. Non-standard residues stand in square brackets, D forms with d. Residues, ends and D or L forms follow the SMILES beside them. Groups on a side chain read outwards from the residue. ξ: configuration not given here. *: point of attachment. C20 diacid = O=C(O)CCCCCCCCCCCCCCCCCCC(=O)*; γGlu = O=C(O)[C@H](CCC(=O)[*:2])N[*:1]; αMeK = C[C@](N)(CCCCN)C(=O)O; ξIva = CCC(C)(N)C(=O)O; AEEA = NCCOCCOCC(=O)O; Aib = CC(C)(N)C(=O)O
What was measured:
human GCGR = biological target: T1, human GCGR (Homo sapiens, UniProt P47871); assay: cAMP HTRF agonist activity assay in CHO-K1 cells expressing GCGR; type: cell-based; for Activity against human GCGR (EC50 nM): 5% FBS, 0.1% Casein
T1 construct: expressed in transfected cells; host or cells: CHO-K1 clonal cell line
T1 sequence (P47871 26-477): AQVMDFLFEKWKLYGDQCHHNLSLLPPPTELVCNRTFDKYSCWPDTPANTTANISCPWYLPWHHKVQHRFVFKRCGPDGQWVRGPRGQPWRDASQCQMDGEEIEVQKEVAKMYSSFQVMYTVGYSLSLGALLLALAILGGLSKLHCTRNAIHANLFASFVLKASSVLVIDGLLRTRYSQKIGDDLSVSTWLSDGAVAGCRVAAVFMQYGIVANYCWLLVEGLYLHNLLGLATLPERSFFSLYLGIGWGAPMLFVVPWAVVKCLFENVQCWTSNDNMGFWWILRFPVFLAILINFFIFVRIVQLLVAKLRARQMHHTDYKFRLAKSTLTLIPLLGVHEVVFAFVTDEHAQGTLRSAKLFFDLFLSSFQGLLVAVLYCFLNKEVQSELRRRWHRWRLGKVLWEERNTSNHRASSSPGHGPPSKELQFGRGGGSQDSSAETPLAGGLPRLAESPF
Method: Functional activity was determined in CHO-K1 clonal cell lines expressing GIPR, GLP-1R, and GCGR. […] Each recipient cell (5000 cells/well) was added to an SV 96-well plate (Cisbio, 66PL96025) and incubated with the prepared polypeptide at 37°Cfor 30 min. The resulting increase in intracellular cAMP was quantitatively measured using the cAMP-GS dynamic HTRF assay kit (Cisbio, 62AM4PEJ). Briefly, the intracellular cAMP levels were determined by adding cAMP-d2 conjugate in cell lysis buffer, followed by the antibody anti-cAMP-Eu cryptate (also in cell lysis buffer).
Using the maximum response percentage vs. the added polypeptide concentration, the relative EC50 values were derived through nonlinear regression analysis and fitted to a four-parameter logarithmic equation. For specific data, refer to Tables 7-1 to 7-8 below. […]

human GLP-1R = biological target: T2, human GLP-1R (Homo sapiens, UniProt P43220); assay: cAMP HTRF agonist activity assay in CHO-K1 cells expressing GLP-1R; type: cell-based; for Activity against human GLP-1R (EC50 nM): 5% FBS, 0.1% Casein
T2 construct: expressed in transfected cells; host or cells: CHO-K1 clonal cell line
T2 sequence (P43220 24-463): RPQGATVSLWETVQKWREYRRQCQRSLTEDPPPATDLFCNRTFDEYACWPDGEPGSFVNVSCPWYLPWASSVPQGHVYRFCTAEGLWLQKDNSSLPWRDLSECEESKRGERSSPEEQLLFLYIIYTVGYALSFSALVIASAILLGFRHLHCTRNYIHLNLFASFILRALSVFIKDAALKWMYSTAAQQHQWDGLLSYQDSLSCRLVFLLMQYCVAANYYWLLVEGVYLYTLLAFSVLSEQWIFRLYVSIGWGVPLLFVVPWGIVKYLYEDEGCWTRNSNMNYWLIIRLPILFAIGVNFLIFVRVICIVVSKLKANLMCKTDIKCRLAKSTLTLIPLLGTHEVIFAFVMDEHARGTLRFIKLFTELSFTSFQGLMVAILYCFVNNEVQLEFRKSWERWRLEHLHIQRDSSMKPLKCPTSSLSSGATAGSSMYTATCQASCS
How it was run: (§1)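 Clonal CHO-K1 lines, 5000 cells/well, exposed to polypeptides for 30 min at 37°C. Intracellular cAMP read by HTRF (cAMP-d2 conjugate plus anti-cAMP-Eu cryptate in lysis buffer). Relative EC50 from four-parameter nonlinear fit of percent maximum response against concentration.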

human GIPR = biological target: T3, human GIPR (Homo sapiens, UniProt P48546); assay: cAMP HTRF agonist activity assay in CHO-K1 cells expressing GIPR; type: cell-based; for Activity against human GIPR (EC50 nM): 5% FBS, 0.1% Casein
T3 construct: expressed in transfected cells; host or cells: CHO-K1 clonal cell line
T3 sequence (P48546 22-466): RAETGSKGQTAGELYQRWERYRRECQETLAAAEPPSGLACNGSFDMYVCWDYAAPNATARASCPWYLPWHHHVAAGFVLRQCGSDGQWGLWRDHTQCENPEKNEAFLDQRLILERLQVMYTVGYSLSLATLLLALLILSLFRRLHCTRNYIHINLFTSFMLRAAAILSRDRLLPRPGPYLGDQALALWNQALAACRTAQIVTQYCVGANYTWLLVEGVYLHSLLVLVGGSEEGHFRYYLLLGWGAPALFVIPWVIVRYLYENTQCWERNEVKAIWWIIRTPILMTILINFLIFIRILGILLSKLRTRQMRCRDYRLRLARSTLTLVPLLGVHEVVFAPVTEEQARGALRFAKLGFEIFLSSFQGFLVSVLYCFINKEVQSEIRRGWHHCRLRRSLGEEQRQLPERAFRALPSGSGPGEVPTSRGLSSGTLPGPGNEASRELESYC
How it was run: as §1

[1] = Pharmacokinetics in mice after single intravenous injection; parameters: species or system C57 mice; details: mouse, in vivo, male C57 mice, single intravenous dose 200 nmol/kg, plasma; for clearance: read-out: CLp; for half-life: read-out: T1/2 (converted)
How it was run: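 Male C57 mice (~25 g, 4-6 weeks, n=3) received a single i.v. dose of 200 nmol/kg in 1×PBS. Plasma collected from 5 min to 72 h was methanol-precipitated with verapamil internal standard and quantified by LC-MS (ESI positive, MRM); PK parameters were calculated by PKSolver.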

[2] = read-out: Activity against human GCGR (EC50 nM)
[3] = read-out: Activity against human GLP-1R (EC50 nM)
[4] = read-out: Activity against human GIPR (EC50 nM)

| Compound | EC50 (human GCGR; [2]) | EC50 (human GLP-1R; [3]) | EC50 (human GIPR; [4]) | AUC(0-inf) [1] | C0 [1] | clearance [1] | half-life [1] | EC50 (human GCGR) | EC50 (human GLP-1R) | EC50 (human GIPR) |
| --- | --- | --- | --- | --- | --- | --- | --- | --- | --- | --- |
| CC[C@H](C)[C@H](NC(=O)[C@H](CO)NC(=O)[C@H](Cc1ccc(O)cc1)NC(=O)[C@H](CC(=O)O)NC(=O)[C@H](CO)NC(=O)[C@@H](NC(=O)[C@H](Cc1ccccc1)NC(=O)[C@@H](NC(=O)CNC(=O)[C@H](Cc1c[nH]cn1)NC(=O)C(C)(C)NC(=O)[C@@H](N)Cc1c[nH]cn1)[C@@H](C)O)[C@@H](C)O)C(=O)N[C@@H](CC(C)C)C(=O)N[C@@H](CC(C)C)C(=O)N[C@@H](CCC(=O)O)C(=O)N[C@@H](CCCCNC(=O)COCCOCCNC(=O)COCCOCCNC(=O)CC[C@H](NC(=O)CCCCCCCCCCCCCCCCCCC(=O)O)C(=O)O)C(=O)N[C@@H](CCCCN)C(=O)N[C@@H](C)C(=O)N[C@@H](C)C(=O)NC(C)(CC)C(=O)N[C@@H](CCC(=O)O)C(=O)N[C@@H](Cc1ccccc1)C(=O)N[C@H](C(=O)N[C@@H](CCC(=O)O)C(=O)N[C@@H](Cc1c[nH]c2ccccc12)C(=O)N[C@@H](CC(C)C)C(=O)N[C@@H](CC(C)C)C(=O)N[C@@H](C)C(=O)NCC(=O)NCC(=O)N1CCC[C@H]1C(=O)N[C@@H](CO)C(=O)N[C@@H](CO)C(=O)NCC(=O)N[C@@H](C)C(=O)N1CCC[C@H]1C(=O)N1CCC[C@H]1C(=O)N1CCC[C@H]1C(=O)N[C@@H](CO)C(N)=O)C(C)C (stereo partly drawn) [Compound 0135] | 0.019 nM | 0.013 nM | 0.001 nM | – | – | – | – | – | – | – |
| CC[C@H](C)[C@H](NC(=O)[C@H](CO)NC(=O)[C@H](CC(C)C)NC(=O)[C@H](CC(=O)O)NC(=O)[C@H](CO)NC(=O)[C@@H](NC(=O)[C@H](Cc1ccccc1)NC(=O)[C@@H](NC(=O)CNC(=O)[C@H](Cc1c[nH]cn1)NC(=O)C(C)(C)NC(=O)[C@@H](N)Cc1c[nH]cn1)[C@@H](C)O)[C@@H](C)O)C(=O)N[C@@](C)(CC(C)C)C(=O)N[C@@H](CC(C)C)C(=O)N[C@@H](CCC(=O)O)C(=O)N[C@@H](CCCCNC(=O)COCCOCCNC(=O)COCCOCCNC(=O)CC[C@H](NC(=O)CCCCCCCCCCCCCCCCCCC(=O)O)C(=O)O)C(=O)N[C@@H](CCCCN)C(=O)N[C@@H](C)C(=O)N[C@@H](C)C(=O)NC(C)(CC)C(=O)N[C@@H](CCC(=O)O)C(=O)N[C@@H](Cc1ccccc1)C(=O)N[C@H](C(=O)N[C@@H](CCC(=O)O)C(=O)N[C@@H](Cc1c[nH]c2ccccc12)C(=O)N[C@@H](CC(C)C)C(=O)N[C@@H](CC(C)C)C(=O)N[C@@H](C)C(=O)NCC(=O)NCC(=O)N1CCC[C@H]1C(=O)N[C@@H](CO)C(=O)N[C@@H](CO)C(=O)NCC(=O)N[C@@H](C)C(=O)N1CCC[C@H]1C(=O)N1CCC[C@H]1C(=O)N1CCC[C@H]1C(=O)N[C@@H](CO)C(N)=O)C(C)C (stereo partly drawn) [Compound 0138] | – | – | – | 18.5 µM·h | 3.28 µM | 0.181 mL/min/kg | 8.2 h | 0.055 nM | 0.019 nM | – |
| CC[C@H](C)[C@H](NC(=O)[C@H](CC(C)C)NC(=O)[C@H](Cc1c[nH]c2ccccc12)NC(=O)[C@H](CCC(=O)O)NC(=O)[C@@H](NC(=O)[C@H](Cc1ccccc1)NC(=O)[C@H](CCC(=O)O)NC(=O)C(C)(CC)NC(=O)[C@H](C)NC(=O)[C@H](C)NC(=O)[C@H](CCCCN)NC(=O)[C@H](CCCCNC(=O)COCCOCCNC(=O)COCCOCCNC(=O)CC[C@H](NC(=O)CCCCCCCCCCCCCCCCCCC(=O)O)C(=O)O)NC(=O)[C@H](CCC(=O)O)NC(=O)[C@H](CC(C)C)NC(=O)[C@H](CC(C)C)NC(=O)[C@](C)(CCCCN)NC(=O)[C@H](CO)NC(=O)[C@H](CC(C)C)NC(=O)[C@H](CC(=O)O)NC(=O)[C@H](CO)NC(=O)[C@@H](NC(=O)[C@H](Cc1ccccc1)NC(=O)[C@@H](NC(=O)CNC(=O)[C@H](Cc1c[nH]cn1)NC(=O)C(C)(C)NC(=O)[C@@H](N)Cc1c[nH]cn1)[C@@H](C)O)[C@@H](C)O)C(C)C)C(=O)N[C@@H](CCC(=O)O)C(=O)NCC(=O)NCC(=O)N1CCC[C@H]1C(=O)N[C@@H](CO)C(=O)N[C@@H](CO)C(=O)NCC(=O)N[C@@H](C)C(=O)N1CCC[C@H]1C(=O)N1CCC[C@H]1C(=O)N1CCC[C@H]1C(=O)N[C@@H](CO)C(N)=O (stereo partly drawn) [Compound 0133] (H-H[Aib]HGTFTSDLS[αMeK]LLEK([AEEA-AEEA-γGlu-C20 diacid])KAA[ξIva]EFVEWLIEGGPSSGAPPPS-NH2) | 0.03 nM | 0.016 nM | 0.002 nM | – | – | – | – | – | – | – |
| CC[C@H](C)[C@H](NC(=O)[C@](C)(CCCCN)NC(=O)[C@H](CO)NC(=O)[C@H](Cc1ccc(O)cc1)NC(=O)[C@H](CC(=O)O)NC(=O)[C@H](CO)NC(=O)[C@@H](NC(=O)[C@H](Cc1ccccc1)NC(=O)[C@@H](NC(=O)CNC(=O)[C@H](Cc1c[nH]cn1)NC(=O)C(C)(C)NC(=O)[C@@H](N)Cc1c[nH]cn1)[C@@H](C)O)[C@@H](C)O)C(=O)N[C@@H](CC(C)C)C(=O)N[C@@H](CCC(=O)O)C(=O)N[C@@H](CCCCNC(=O)COCCOCCNC(=O)COCCOCCNC(=O)CC[C@H](NC(=O)CCCCCCCCCCCCCCCCCCC(=O)O)C(=O)O)C(=O)N[C@@H](CCCCN)C(=O)N[C@@H](C)C(=O)N[C@@H](C)C(=O)N[C@@H](CCC(N)=O)C(=O)N[C@@H](CCC(=O)O)C(=O)N[C@@H](Cc1ccccc1)C(=O)N[C@H](C(=O)N[C@@H](CCC(=O)O)C(=O)N[C@@H](Cc1c[nH]c2ccccc12)C(=O)N[C@@H](CC(C)C)C(=O)N[C@@H](CC(C)C)C(=O)N[C@@H](C)C(=O)NCC(=O)NCC(=O)N1CCC[C@H]1C(=O)N[C@@H](CO)C(=O)N[C@@H](CO)C(=O)NCC(=O)N[C@@H](C)C(=O)N1CCC[C@H]1C(=O)N1CCC[C@H]1C(=O)N1CCC[C@H]1C(=O)N[C@@H](CO)C(N)=O)C(C)C [Compound 0119] (H-H[Aib]HGTFTSDYS[αMeK]ILEK([AEEA-AEEA-γGlu-C20 diacid])KAAQEFVEWLLAGGPSSGAPPPS-NH2) | – | – | – | 55.9 µM·h | 6.17 µM | 0.058 mL/min/kg | 13 h | 0.087 nM | 0.023 nM | 0.005 nM |
| CC(C)C[C@H](NC(=O)[C@H](CC(C)C)NC(=O)[C@H](Cc1c[nH]c2ccccc12)NC(=O)[C@H](CCC(=O)O)NC(=O)[C@@H](NC(=O)[C@H](Cc1ccccc1)NC(=O)[C@H](CCC(=O)O)NC(=O)[C@H](CCC(N)=O)NC(=O)[C@H](C)NC(=O)[C@H](C)NC(=O)[C@H](CCCCN)NC(=O)[C@H](CCCCNC(=O)COCCOCCNC(=O)COCCOCCNC(=O)CC[C@H](NC(=O)CCCCCCCCCCCCCCCCCCC(=O)O)C(=O)O)NC(=O)[C@H](CCC(=O)O)NC(=O)[C@H](CC(C)C)NC(=O)[C@H](CC(C)C)NC(=O)[C@](C)(CCCCN)NC(=O)[C@H](CO)NC(=O)[C@H](Cc1ccc(O)cc1)NC(=O)[C@H](CC(=O)O)NC(=O)[C@H](CO)NC(=O)[C@@H](NC(=O)[C@H](Cc1ccccc1)NC(=O)[C@@H](NC(=O)CNC(=O)[C@H](Cc1c[nH]cn1)NC(=O)C(C)(C)NC(=O)[C@@H](N)Cc1c[nH]cn1)[C@@H](C)O)[C@@H](C)O)C(C)C)C(=O)N[C@@H](C)C(=O)NCC(=O)NCC(=O)N1CCC[C@H]1C(=O)N[C@@H](CO)C(=O)N[C@@H](CO)C(=O)NCC(=O)N[C@@H](C)C(=O)N1CCC[C@H]1C(=O)N1CCC[C@H]1C(=O)N1CCC[C@H]1C(=O)N[C@@H](CO)C(N)=O [Compound 0112] (H-H[Aib]HGTFTSDYS[αMeK]LLEK([AEEA-AEEA-γGlu-C20 diacid])KAAQEFVEWLLAGGPSSGAPPPS-NH2) | 0.087 nM | – | 0.005 nM | – | – | – | – | – | – | – |

— EP4745153A1, “GLP-1, GIP AND GCG RECEPTOR […] USE THEREOF” (Jiangsu Hengrui Pharmaceuticals Co., Ltd., priority 2023, dated 2025)
